Data: patent US20180200275A1, “METHOD AND THE USE TO IMPROVE ORAL ABSORPTION OF NICOTINAMIDE AND NICOTINAMIDE RIBOSIDE” (Better Standing Company Inc., priority 2017, published 2018)

Key:
[1] = effects noted by a person (the inventor) after oral consumption; format: in vivo, human; settings: 50 mg nicotinamide or 125 mg N-Ribosylnicotinamide chloride with water only, one person
[2] = cited from earlier work

## NC(=O)c1cccnc1 [nicotinamide, 3-pyridinecarboxamide]
[1]
  effects of consuming shortly before bed with water only: no discernible effects
[2]
  pKa of the pyridine ring nitrogen atom: 4.14
